These results are taken from patent publication US20250356957A1, “EMULATOR OF SUBCUTANEOUS ABSORPTION AND RELEASE” (UNIVERSITY OF KANSAS, priority 2022, published 2025).

The data set can be described thus: ESCAR drug release tests for acetaminophen solution (factor screening). Format: in vitro ADME. Particulars: center position injection, 10 mg/mL solution. The method, then:
Acetaminophen solution (10 mg/mL) and the subcutaneous chamber (Version 1; FIG. 2C) were used across different runs. Both the “lymphatic circulation” and “blood circulation” chambers were filled with 75 mL of PBS (pH 7.4), and the subcutaneous chamber was filled with 2.8 mL of HA/PBS solution. At the surrounding areas of the interfaces, a layer of mounting tape was assembled to prevent liquid leakage. Sequentially, the “subcutaneous”/“blood circulation” interface was assembled with a SpectraPor® dialysis membrane (MWCO: 50 kDa), and the “subcutaneous”/“lymphatic circulation” interface was assembled with a SpectraPor® dialysis membrane (MWCO: 300 kDa). All membranes were pre-soaked in DI water for at least 1 h before use. The drug release tests were conducted at 34° C. in a convective oven, with mild magnetic stirring in the “blood circulation” and “lymphatic circulation” chambers. […] A 18-run full factorial experimental design was employed to evaluate three factors, HA concentration (three levels: 2.5, 5, 10 mg/mL), injection volume (three levels: 0.25, 0.5, 1 mL), and injection position/needle tip position to the membrane at the “subcutaneous”/“blood circulation” interface (two levels: 0.2, 0.5 cm). At the pre-set time points, 1.5 mL of aliquots were withdrawn from the “blood circulation” chamber with the replacement of the same volume of PBS. Each run was conducted in triplicate.

As for `CC(=O)Nc1ccc(O)cc1` [acetaminophen, Acetaminophen], the “release fraction (%) at 8-hr” value is, setting by setting: (2.5 mg/mL HA solution) roughly 60%; (5 mg/mL HA solution) roughly 30%; (10 mg/mL HA solution) roughly 15%; (subcutaneous medium PBS) roughly 80%.
